Experimental data published in ChEMBL document CHEMBL1201862, “PubChem BioAssay data set” (2004).
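Test compounds were applied to cells in 96-well plates for 48 hours at 5 doses. Abbreviation: GI50, concentration required for 50% inhibition of growth.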 Calls of active or inactive are those of the source. No stated cut-off is given here; in the data, active = GI50 up to about 1.1 µM and inactive = higher.

Key:
Experiment in all cases: DTP human tumour cell line panel, 48 h
[1] = system: HOP-92
[2] = system: SR
[3] = system: RXF 393
[4] = system: OVCAR-3
[5] = system: M19-MEL
[6] = system: UACC-257
[7] = system: UO-31
[8] = system: CCRF-CEM
[9] = system: HOP-62
[10] = system: M14
[11] = system: Malme-3M
[12] = system: CAKI-1
[13] = system: SNB-75
[14] = system: SF-295
[15] = system: SK-MEL-28
[16] = system: COLO 205
[17] = system: UACC-62
[18] = system: XF498
[19] = system: SNB-19
[20] = system: TK-10
[21] = system: OVCAR-8
[22] = system: HL-60
[23] = system: RPMI-8226
[24] = system: U-251
[25] = system: LXFL 529
[26] = system: A549
[27] = system: KM-20L2
[28] = system: SF-268
[29] = system: 786-0
[30] = system: ACHN
[31] = system: IGROV-1
[32] = system: OVCAR-5
[33] = system: SK-MEL-5
[34] = system: RXF 631
[35] = system: HCT-116
[36] = system: EKVX
[37] = system: DLD-1
[38] = system: SK-OV-3
[39] = system: SN12C
[40] = system: MOLT-4
[41] = system: NCI-H23
[42] = system: K562
[43] = system: HOP-18
[44] = system: DMS-114
[45] = system: HCT-15
[46] = system: SF-539
[47] = system: NCI-H226
[48] = system: HCC 2998
[49] = system: SK-MEL-2
[50] = system: SNB-78
[51] = system: A498
[52] = system: KM12
[53] = system: HT-29
[54] = system: NCI-H460
[55] = system: LOX IMVI
[56] = system: NCI-H522
[57] = system: SW-620
[58] = system: OVCAR-4

CN(C)CC/[N+]([O-])=C(/c1ccccc1)C12CC3CC(CC(C3)C1)C2
GI50 [1]: 14.1 µM (inactive) | GI50 [2]: 16.2 µM (inactive) | GI50 [3]: 18.2 µM (inactive) | GI50 [4]: 14.7 µM (inactive) | GI50 [5]: 13.8 µM (inactive) | GI50 [6]: 15.9 µM (inactive) | GI50 [7]: 11.9 µM (inactive) | GI50 [8]: 15.8 µM (inactive) | GI50 [9]: 14.8 µM (inactive) | GI50 [10]: 13.4 µM (inactive) | GI50 [11]: 39.7 µM (inactive) | GI50 [12]: 17 µM (inactive) | GI50 [13]: 11.9 µM (inactive) | GI50 [14]: 14 µM (inactive) | GI50 [15]: 16.2 µM (inactive) | GI50 [16]: 14 µM (inactive) | GI50 [17]: 14 µM (inactive) | GI50 [18]: 13.2 µM (inactive) | GI50 [19]: 18.2 µM (inactive) | GI50 [20]: 16.7 µM (inactive) | GI50 [21]: 17.9 µM (inactive) | GI50 [22]: 11.8 µM (inactive) | GI50 [23]: 17.7 µM (inactive) | GI50 [24]: 16 µM (inactive) | GI50 [25]: 24 µM (inactive) | GI50 [26]: 18.4 µM (inactive) | GI50 [27]: 11.5 µM (inactive) | GI50 [28]: 20.9 µM (inactive) | GI50 [29]: 13.5 µM (inactive) | GI50 [30]: 16.3 µM (inactive) | GI50 [31]: 18.5 µM (inactive) | GI50 [32]: 17.7 µM (inactive) | GI50 [33]: 17.5 µM (inactive) | GI50 [34]: 14 µM (inactive) | GI50 [35]: 17.9 µM (inactive) | GI50 [36]: 21 µM (inactive) | GI50 [37]: 16.1 µM (inactive) | GI50 [38]: 17.1 µM (inactive) | GI50 [39]: 17.2 µM (inactive) | GI50 [40]: 16.7 µM (inactive) | GI50 [41]: 20.1 µM (inactive) | GI50 [42]: 15.1 µM (inactive) | GI50 [43]: 20.9 µM (inactive) | GI50 [44]: 20.2 µM (inactive) | GI50 [45]: 19.1 µM | GI50 [46]: 16.5 µM (inactive) | GI50 [47]: 12.5 µM (inactive) | GI50 [48]: 22.2 µM (inactive) | GI50 [49]: 18.2 µM (inactive) | GI50 [50]: 19 µM (inactive) | GI50 [51]: 18.3 µM (inactive) | GI50 [52]: 18.3 µM (inactive) | GI50 [53]: 11 µM (inactive) | GI50 [54]: 18.4 µM (inactive) | GI50 [55]: 15.3 µM (inactive) | GI50 [56]: 15.1 µM (inactive)

COC(=O)C(=O)C(C(=O)C(=O)Nc1ccc(F)cc1)c1nc2ccc([N+](=O)[O-])cc2nc1O (centres undefined)
GI50 [1]: > 100 µM (inactive) | GI50 [2]: > 100 µM (inactive) | GI50 [3]: > 100 µM (inactive) | GI50 [4]: > 100 µM (inactive) | GI50 [5]: > 100 µM (inactive) | GI50 [6]: > 100 µM (inactive) | GI50 [7]: > 100 µM (inactive) | GI50 [8]: > 100 µM (inactive) | GI50 [9]: > 100 µM (inactive) | GI50 [10]: > 100 µM (inactive) | GI50 [11]: > 100 µM (inactive) | GI50 [57]: > 100 µM (inactive) | GI50 [12]: > 100 µM (inactive) | GI50 [13]: > 100 µM (inactive) | GI50 [14]: > 100 µM (inactive) | GI50 [15]: > 100 µM (inactive) | GI50 [16]: > 100 µM (inactive) | GI50 [18]: > 100 µM (inactive) | GI50 [19]: > 100 µM (inactive) | GI50 [20]: > 100 µM (inactive) | GI50 [21]: > 100 µM (inactive) | GI50 [22]: > 100 µM (inactive) | GI50 [23]: > 100 µM (inactive) | GI50 [24]: > 100 µM (inactive) | GI50 [25]: > 100 µM (inactive) | GI50 [26]: > 100 µM (inactive) | GI50 [27]: > 100 µM (inactive) | GI50 [28]: > 100 µM (inactive) | GI50 [29]: > 100 µM (inactive) | GI50 [31]: > 100 µM (inactive) | GI50 [32]: > 100 µM (inactive) | GI50 [33]: > 100 µM (inactive) | GI50 [34]: > 100 µM (inactive) | GI50 [35]: > 100 µM (inactive) | GI50 [36]: > 100 µM (inactive) | GI50 [37]: > 100 µM (inactive) | GI50 [38]: > 100 µM (inactive) | GI50 [39]: > 100 µM (inactive) | GI50 [41]: > 100 µM (inactive) | GI50 [42]: > 100 µM (inactive) | GI50 [43]: > 100 µM (inactive) | GI50 [45]: > 100 µM | GI50 [58]: > 100 µM (inactive) | GI50 [46]: > 100 µM (inactive) | GI50 [47]: > 100 µM (inactive) | GI50 [48]: > 100 µM (inactive) | GI50 [50]: > 100 µM (inactive) | GI50 [51]: > 100 µM (inactive) | GI50 [52]: > 100 µM (inactive) | GI50 [53]: > 100 µM (inactive) | GI50 [54]: > 100 µM (inactive) | GI50 [55]: > 100 µM (inactive) | GI50 [56]: > 100 µM (inactive)
